Laboratory results from patent US20070167462A1, “Fungicidal mixtures” (priority 2004, published 2007).

Test system: Corticium sasakii
Assay: Activity against sheath blight on rice caused by Corticium sasakii (protective spray, rice plants cultivar Tai-Nong 67)
Type: in vivo
Details: untreated control 90% infection
Procedure: The active compounds, separately or jointly, were prepared as a stock solution comprising 0.25% by weight of active compound in acetone or DMSO. 1% by weight of the emulsifier Uniperol® EL (wetting agent having emulsifying and dispersing action based on ethoxylated alkylphenols) was added to this solution, and the mixture was diluted with water accordingly to the desired concentration.
Use example—Activity against sheath blight on rice caused by Corticium sasakii
Pots of rice plants of the cultivar “Tai-Nong 67” were sprayed to runoff point with an aqueous suspension having the concentration of active compound stated below. The next day, oat grains infected with Corticium sasakii were planted in the pots (in each case 5 grains per pot). The plants were then placed in a chamber at 26° C. and maximum atmospheric humidity. After […], the sheath blight on the untreated but infected control plants had developed to such an extent that the infection could be determined visually in %.
Evaluation is carried out by determining the infected leaf areas in percent. These percentages were converted into efficacies.
The efficacy (E) is calculated as follows using Abbot's formula: E=(1−αβ)·100 • α corresponds to the fungal infection of the treated plants in % and • β corresponds to the fungal infection of the untreated (control) plants in %
An efficacy of 0 means that the infection level of the treated plants corresponds to that of the untreated control plants; an efficacy of 100 means that the treated plants are not infected.
The expected efficacies of the mixtures of active compounds are determined using Colby's formula [R. S. Colby, Weeds, 15, 20-22 (1967)] and are compared with the observed efficacies.
Colby's formula: E=x+y−x·y/100 • E expected efficacy, expressed in % of the untreated control, when using the mixture of the active compounds A and B at the concentrations a and b • x efficacy, expressed in % of the untreated control, when using the active compound A at the concentration a
y efficacy, expressed in % of the untreated control, when using the active compound B at the concentration b

[1] = 4 ppm active compound in the spray liquor
[2] = 16 ppm active compound in the spray liquor

Compound	Efficacy in % of the untreated control [1]	Efficacy in % of the untreated control [2]
CC(C)Oc1cccc(NC(=O)c2ccccc2C(F)(F)F)c1 [II (flutolanil), N-(3-isopropoxyphenyl)-2-trifluoromethylbenzamide]	0%	31%
CC1CCN(c2c(-c3c(F)cc(F)cc3F)c(Cl)nc3ncnn23)CC1 [compound I, 5-chloro-7-(4-methylpiperidin-1-yl)-6-(2,4,6-trifluorophenyl)-[1,2,4]tri-azolo[1,5-a]pyrimidine]	31%	65%
